According to ChEMBL document CHEMBL3804756 (J Med Chem, 2016):

Experiments:
Histamine H2 receptor [1] = molecular target: T1, Histamine H2 receptor (Homo sapiens, UniProt P25021); assay: Intrinsic activity at human histamine H2 receptor expressed in sf9 cell membrane co-expressing Gsalphas at 10 uM incubated for 90 mins by [35S]GTPgammaS binding assay relative to histamine; assay type: functional
Histamine H2 receptor [2] = molecular target: T1, Histamine H2 receptor; assay: Antagonist activity at human histamine H2 receptor expressed in sf9 cell membrane co-expressing Gsalphas assessed as inhibition of histamine-induced [35S]GTPgammaS binding incubated for 90 mins; assay type: functional
Histamine H3 receptor [3] = molecular target: T2, Histamine H3 receptor (Homo sapiens, UniProt Q9Y5N1); assay: Intrinsic activity at human histamine H3 receptor expressed in sf9 cell membrane co-expressing mammalian Galphai2 and Gbeta1gamma2 at 10 uM incubated for 90 mins by [35S]GTPgammaS binding assay relative to histamine; assay type: functional
Histamine H4 receptor [4] = molecular target: T3, Histamine H4 receptor (Homo sapiens, UniProt Q9H3N8); assay: Displacement of [3H]UR-PI294 from human histamine H4 receptor expressed in sf9 cell membrane co-expressing mammalian Galphai2 and Gbeta1gamma2 incubated for 60 mins by liquid scintillation counting method
Histamine H1 receptor = Histamine H1 receptor (Homo sapiens, UniProt P35367); assay: Displacement of [3H]mepyramine from human histamine H1 receptor expressed in sf9 cell membrane co-expressing RGS4 incubated for 60 mins by liquid scintillation counting method
Histamine H4 receptor [5] = molecular target: T3, Histamine H4 receptor; assay: Agonist activity at human histamine H4 receptor expressed in sf9 cell membrane co-expressing mammalian Galphai2 and Gbeta1gamma2 incubated for 90 mins by [35S]GTPgammaS binding assay; assay type: functional
Histamine H3 receptor [6] = molecular target: T2, Histamine H3 receptor; assay: Displacement of [3H]N-alpha-methylhistamine from human histamine H3 receptor expressed in sf9 cell membrane co-expressing mammalian Galphai2 and Gbeta1gamma2 incubated for 60 mins by liquid scintillation counting method
Histamine H3 receptor [7] = molecular target: T2, Histamine H3 receptor; assay: Agonist activity at human histamine H3 receptor expressed in sf9 cell membrane co-expressing mammalian Galphai2 and Gbeta1gamma2 incubated for 90 mins by [35S]GTPgammaS binding assay; assay type: functional
Histamine H3 receptor [8] = molecular target: T2, Histamine H3 receptor; assay: Antagonist activity at human histamine H3 receptor expressed in sf9 cell membrane co-expressing mammalian Galphai2 and Gbeta1gamma2 assessed as inhibition of histamine-induced [35S]GTPgammaS binding incubated for 90 mins; assay type: functional

Sequence of Histamine H1 receptor (P35367 whole entry): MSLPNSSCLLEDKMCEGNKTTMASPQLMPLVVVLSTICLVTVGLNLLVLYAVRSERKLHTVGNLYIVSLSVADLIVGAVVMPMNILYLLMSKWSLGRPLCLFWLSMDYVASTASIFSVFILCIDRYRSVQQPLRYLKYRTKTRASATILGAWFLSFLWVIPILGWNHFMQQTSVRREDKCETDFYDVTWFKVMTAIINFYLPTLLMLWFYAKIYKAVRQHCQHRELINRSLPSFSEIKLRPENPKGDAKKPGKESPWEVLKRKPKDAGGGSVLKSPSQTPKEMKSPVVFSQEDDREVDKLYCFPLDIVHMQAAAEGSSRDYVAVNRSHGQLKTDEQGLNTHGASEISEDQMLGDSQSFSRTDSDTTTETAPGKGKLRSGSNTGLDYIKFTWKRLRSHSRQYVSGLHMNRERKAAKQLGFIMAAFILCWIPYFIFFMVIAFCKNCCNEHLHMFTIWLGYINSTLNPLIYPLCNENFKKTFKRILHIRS
T2 sequence (Q9Y5N1 whole entry): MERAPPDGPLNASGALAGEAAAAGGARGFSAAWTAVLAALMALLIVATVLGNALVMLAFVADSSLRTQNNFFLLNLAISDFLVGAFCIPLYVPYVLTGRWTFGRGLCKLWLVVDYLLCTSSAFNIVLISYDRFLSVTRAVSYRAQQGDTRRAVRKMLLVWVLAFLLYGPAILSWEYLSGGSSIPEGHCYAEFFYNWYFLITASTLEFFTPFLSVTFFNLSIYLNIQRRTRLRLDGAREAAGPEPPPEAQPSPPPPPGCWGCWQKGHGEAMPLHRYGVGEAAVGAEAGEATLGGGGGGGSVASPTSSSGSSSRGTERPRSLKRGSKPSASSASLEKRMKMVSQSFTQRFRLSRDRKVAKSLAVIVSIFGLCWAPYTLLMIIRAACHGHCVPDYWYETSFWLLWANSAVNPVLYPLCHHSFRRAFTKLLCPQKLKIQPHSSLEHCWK
T3 sequence (Q9H3N8 whole entry): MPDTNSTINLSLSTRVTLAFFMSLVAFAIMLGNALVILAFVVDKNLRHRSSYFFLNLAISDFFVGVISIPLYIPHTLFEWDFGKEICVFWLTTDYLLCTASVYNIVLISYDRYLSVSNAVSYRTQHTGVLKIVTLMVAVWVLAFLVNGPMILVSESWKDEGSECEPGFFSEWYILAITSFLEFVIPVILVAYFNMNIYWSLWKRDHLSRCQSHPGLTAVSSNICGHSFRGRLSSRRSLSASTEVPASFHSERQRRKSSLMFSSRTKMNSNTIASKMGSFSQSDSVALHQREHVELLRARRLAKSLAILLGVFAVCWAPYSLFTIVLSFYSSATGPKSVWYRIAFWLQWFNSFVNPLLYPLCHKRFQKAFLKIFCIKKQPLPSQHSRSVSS
T1 sequence (P25021 whole entry): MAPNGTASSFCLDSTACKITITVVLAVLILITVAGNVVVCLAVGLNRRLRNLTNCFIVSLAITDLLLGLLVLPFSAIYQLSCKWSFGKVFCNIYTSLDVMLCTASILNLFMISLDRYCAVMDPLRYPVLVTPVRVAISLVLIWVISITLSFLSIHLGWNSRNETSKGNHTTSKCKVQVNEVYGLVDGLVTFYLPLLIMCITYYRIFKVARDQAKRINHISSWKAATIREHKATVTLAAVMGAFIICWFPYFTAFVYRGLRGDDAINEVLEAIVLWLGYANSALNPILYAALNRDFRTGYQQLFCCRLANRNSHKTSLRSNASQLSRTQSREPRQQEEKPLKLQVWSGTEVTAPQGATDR

SMILES | Intrinsic activity (Histamine H2 receptor [1]) | Kb (Histamine H2 receptor [2]) | Intrinsic activity (Histamine H3 receptor [3]) | Ki (Histamine H4 receptor [4]) | Ki (Histamine H1 receptor) | EC50 (Histamine H4 receptor [5]) | Ki (Histamine H3 receptor [6]) | EC50 (Histamine H3 receptor [7]) | Kb (Histamine H3 receptor [8])
CN/C(=N\C#N)NC[C@@H]1CC[C@H](c2c[nH]cn2)C1 | 0 | > 10000 nM | 0.61 |  |  |  |  |  | 
N#C/N=C(/NCCSc1ccccc1)NC[C@@H]1CC[C@H](c2c[nH]cn2)C1 (racemic) |  |  |  | 250 nM | 3800 nM | 129 nM | 1350 nM |  | 
Cc1nc[nH]c1CCN [4-METHYLHISTAMINE] | 1 |  | 0.7 |  |  |  |  | 12400 nM | 
N#C/N=C(/NCCCc1ccccc1)NC[C@@H]1CC[C@H](c2c[nH]cn2)C1 (racemic) | 0 | > 10000 nM | 0 |  | 9350 nM | 372 nM |  |  | 70 nM
N#C/N=C(/NCCSc1ccccc1)N[C@H]1CC[C@H](c2c[nH]cn2)CC1 |  |  |  |  |  |  |  |  | 180 nM
CC(C)CN/C(=N/C#N)NC[C@H]1CC[C@H](c2c[nH]cn2)C1 (racemic) | 0 | > 10000 nM | 0.54 |  | 8750 nM | 15 nM |  | 578 nM | 
N#C/N=C(/NCCSc1ccccc1)NC[C@H]1CC[C@H](c2c[nH]cn2)C1 (racemic) |  |  |  | 99 nM | 6080 nM | 14 nM | 1230 nM |  | 
CN/C(=N\C#N)NC[C@H]1CC[C@H](c2c[nH]cn2)C1 (racemic) | 0 | > 10000 nM | -0.46 |  |  |  |  |  | 
S=C(NC1CCCCC1)N1CCC(c2cnc[nH]2)CC1 |  |  | -0.59 |  |  |  |  |  | 
CN/C(=N\C#N)NC[C@@H]1CC[C@H](c2c[nH]cn2)C1 (racemic) | 0 | > 10000 nM | 0.51 |  |  |  |  |  | 
N#C/N=C(/NCCCc1ccccc1)NC[C@H]1CC[C@H](c2c[nH]cn2)C1 (racemic) | 0 | > 10000 nM | -0.19 |  | > 10000 nM | 125 nM |  |  | 325 nM
N#C/N=C(\NC[C@@H]1CC[C@H](c2c[nH]cn2)C1)NC1CC1 (racemic) | 0 | > 10000 nM | 0.28 |  | > 10000 nM | 245 nM |  | 1530 nM | 
N#C/N=C(/NCCSc1ccccc1)N[C@H]1CC[C@@H](c2c[nH]cn2)CC1 |  |  |  |  |  | 110 nM |  |  | 1900 nM
N#C/N=C(/NCCNc1ccccc1)NC[C@H]1CC[C@H](c2c[nH]cn2)C1 (racemic) | 0 | > 10000 nM | 0 |  | > 10000 nM |  |  |  | 408 nM
CN1CCN(C(=O)c2cc3cc(Cl)ccc3[nH]2)CC1 |  |  | -0.56 |  |  |  |  |  | 
N#C/N=C(/NCCNc1ccccc1)NC[C@@H]1CC[C@H](c2c[nH]cn2)C1 (racemic) | 0 | > 10000 nM | 0 |  | > 10000 nM |  |  |  | 402 nM
N#C/N=C(/NCCOc1ccccc1)NC[C@@H]1CC[C@H](c2c[nH]cn2)C1 (racemic) | 0 | > 10000 nM | 0 |  | > 10000 nM |  |  |  | 328 nM
CC(C)CN/C(=N/C#N)NC[C@@H]1CC[C@H](c2c[nH]cn2)C1 (racemic) | 0 | > 10000 nM | 0.5 |  | 8350 nM | 202 nM |  | 858 nM | 
N#C/N=C(/NCCOc1ccccc1)NC[C@H]1CC[C@H](c2c[nH]cn2)C1 (racemic) | 0 | > 10000 nM | 0 |  | > 10000 nM | 524 nM |  |  | 540 nM
N#C/N=C(/NCCSc1ccccc1)NC[C@@H]1CC[C@H](c2c[nH]cn2)C1 | 0 | > 10000 nM | -0.21 |  |  |  |  |  | 718 nM
CCC(=O)/N=C(\N)NCCCc1c[nH]cn1 | 0.8 |  | 0.4 |  |  |  |  |  | 
N#C/N=C(/NCCCCc1c[nH]cn1)NCCSc1ccccc1 | 0 |  | -0.52 |  |  |  |  | 720 nM | 
